From ChEMBL document CHEMBL2062440, “Isolation of spirastrellolides A and B from a marine sponge Epipolasis sp. and their cytotoxic activities” (J Nat Prod, 2012) come the findings set out here.

The assay deals with HeLa. The assay can be described thus: Cytotoxicity against human HeLa cells after 72 hrs by MTT assay. The assay is classed as functional, cell-based. (In general: Formazan colour is commonly taken as a measure of viable cells.)

In the case of `COC(=O)[C@H](O)C/C=C\C/C=C/C[C@@H]1O[C@@]23C[C@@H]1OC(=O)C[C@H]1CCC[C@@H](C[C@@H](O)C[C@H](O)C[C@H]4O[C@]5(C=C[C@@H]4C)CC[C@H](OC)[C@H](O5)[C@@H](O)[C@@H](O)[C@@H](C)CC[C@H]4O[C@@](CC[C@@H]2C)(C[C@@H](OC)[C@@H]4Cl)O3)O1` [SPIRASTRELLOLIDE A METHYL ESTER], the half-maximal inhibitory concentration (IC50) is 30 nM. The result for `COC(=O)[C@H](O)C/C=C\C/C=C/C[C@@H]1O[C@@]23C[C@@H]1OC(=O)C[C@H]1CCC[C@@H](C[C@@H](O)C[C@H](O)C[C@H]4O[C@@]5(CC[C@H](OC)[C@H](O5)[C@@H](O)[C@@H](O)[C@@H](C)CC[C@@H]5C[C@H](OC)C[C@](CC[C@@H]2C)(O5)O3)CC[C@@H]4C)O1` [SPIRASTRELLOLIDE B METHYL ESTER] reads 70 nM. The result for `CO[C@H]1C[C@H]2CC[C@H](C)[C@H](O)[C@H](O)[C@H]3O[C@]4(CC[C@@H]3OC)CC[C@H](C)[C@@H](C[C@@H](O)C[C@H](O)C[C@@H]3CCC[C@H](CC(=O)O[C@H]5C[C@@]6(O[C@H]5C/C=C/C/C=C\C[C@@H](O)C(=O)O)O[C@](CC[C@@H]6C)(C1)O2)O3)O4` [SPIRASTRELLOLIDE B] reads 40 nM. Compound `CO[C@H]1CC[C@]23C=C[C@H](C)[C@@H](C[C@@H](O)C[C@H](O)C[C@@H]4CCC[C@H](CC(=O)O[C@H]5C[C@@]6(O[C@H]5C/C=C/C/C=C\C[C@@H](O)C(=O)O)O[C@]5(CC[C@@H]6C)C[C@@H](OC)[C@H](Cl)[C@@H](CC[C@H](C)[C@H](O)[C@H](O)[C@H]1O2)O5)O4)O3` [SPIRASTRELLOLIDE A] displayed an IC50 of 20 nM.

As a reminder, the IC50 is the concentration at which inhibition is half-maximal. A low value points to greater potency.
